In ChEMBL document CHEMBL5576130, “Non-Covalent Inhibitors of SARS-CoV-2 Papain-Like Protease (PLpro): In Vitro and In Vivo Antiviral Activity” (J Med Chem, 2024):
pEC50: −log10 of the molar value. Active and inactive are the calls of the source. No cut-off for these calls is given here.

How the values were obtained:
[1] = Plasma protein binding in human; format: ADME, cell-free
[2] = test system: SARS-CoV-2; assay: Antiviral activity against SARS-CoV-2 USA-WA1/2020 infected in African green monkey Vero cells assessed as reduction in viral growth at 2 to 20 uM measured after 2 days by plaque assay; format: functional, organism-based; conditions: Severe acute respiratory syndrome coronavirus 2, dose 2-20 µM, time 2.0 day
[3] = test system: SARS-CoV-2; assay: Antiviral activity against SARS-CoV-2 USA-WA1/2020 infected in African green monkey Vero cells assessed as reduction in viral growth at 10 uM measured after 2 days by plaque assay; format: functional, organism-based; conditions: Severe acute respiratory syndrome coronavirus 2, time 2.0 day
[4] = test system: SARS-CoV-2; assay: Antiviral activity against SARS-CoV-2 USA-WA1/2020 infected in African green monkey Vero E6 cells […] for 1 hrs followed by viral infection and measured after 48 hrs; format: functional, organism-based; conditions: Severe acute respiratory syndrome coronavirus 2, USA-WA1/2020, Vero C1008
[5] = test system: SARS-CoV-2; assay: Antiviral activity against SARS CoV-2; format: functional, organism-based; conditions: Severe acute respiratory syndrome coronavirus 2

Compound | Activity [2] | further results
CC(=O)N1CCN(c2ccc(OCC3COC(Cn4ccnc4)(c4ccc(Cl)cc4Cl)O3)cc2)CC1 (stereo not drawn) [KETOCONAZOLE] | – | PPB [1]: 99.3%
Cc1ccc(OC2CNC2)cc1C(=O)N[C@H](C)c1cccc(-c2ccc(CN3CCCC3)s2)c1 | Active | –
Cc1ccc(NC2CNC2)cc1C(=O)N[C@H](C)c1cccc(-c2ccc(CN[C@H]3CC[C@@H](O)C3)s2)c1 (single isomer, unassigned) | – | Activity [3]: inactive
Cc1ccc(NC2CNC2)cc1C(=O)N[C@H](C)c1cccc(-c2ccc(CNC(=O)C3CCCC3)s2)c1 | inactive | –
COC(=O)/C=C/C(=O)NNC(=O)CCc1ccccc1C(=O)N[C@H](C)c1cccc2ccccc12 | – | pEC50 [4]: 6.59
Nc1ccc2cc3ccc(N)cc3nc2c1 [PROFLAVINE] | – | pEC50 [5]: 4.19
Cc1ccc(OCCN)cc1C(=O)N[C@H](C)c1cccc(-c2ccc(CN3CCCC3)s2)c1 | inactive | –
Cc1ccc(NC2CNC2)cc1C(=O)N[C@H](C)c1cccc(-c2ccc(CN3CCCC3)s2)c1 | Active | –
